# In patent US20120277211A1, “METHODS AND COMPOSITIONS FOR THE TREATMENT OF PSYCHOTIC DISORDERS THROUGH THE IDENTIFICATION OF THE SULT4A1-1 HAPLOTYPE” (priority 2009, published 2012):
# Read-outs that look alike come from different tables or passages of the source. Marks after values point to notes of the source that are not given here.
# Key:
# [1] = tested on: schizophrenia patients; assay: CATIE: months of successful treatment measured by the CGI scale (TMSUCC1); format: in vivo, human
# Excerpt: The CATIE clinical data set included Clinical Global Impression (CGI) Scale, an observer-provided assessment of the psychiatric health of the patient (Stroup et al., 2003; Guy 1976). Patients are rated with the CGI Scale from 1 to 7, with higher scores indicating greater severity of illness. The CATIE study provided a response variable that measured the time (in months) of successful treatment as measured by the CGI scale (“TMSUCC1” in the CATIE data).
# [2] = tested on: schizophrenia patients; conditions: Phase II; for Responders: decrease PANSS ≧20%, LOCF
# [3] = tested on: schizophrenia patients; conditions: published CATIE results (Lieberman et al. 2005); cited from earlier work
# [4] = tested on: Caucasian schizophrenia patients; assay: CATIE: time to discontinuation for all causes by SULT4A1-1 status; format: in vivo, human; conditions: SULT4A1-1 negative
# Excerpt: The primary endpoint for the CATIE study was time to discontinuation for all causes (Lieberman et al., 2005). Thus the inventors evaluated the effect of SULT41-1 status on this important parameter.
# [5] = tested on: African American schizophrenia patients; assay: CATIE: change in total PANSS (LOCF) by SULT4A1-1 haplotype status, African Americans; format: in vivo, human; conditions: for Number of individuals with change in total PANSS ≦−20% (responders) / Number of individuals with change in total PANSS ≧−20% (non-responders): LOCF
# Procedure: The design of the CATIE study has been described in detail by others (Lieberman et al., 2005; Stroup et al., 2003). […] A total of 738 subjects consented to provide DNA for genetic study. […] Retrospective genetic analyses, judged to be exempt from human studies requirements by an IRB, were conducted in the current study. All tested patients were studied using well established clinical endpoints comparing baseline, intermediate, and last observation carried forward (LOCF) for the PANSS scores using CATIE data. […] To remove time on drug as a variable for the CATIE trial, analysis was limited to only those patients who were randomized to a different drug following the initial washout period (drug switchers).
# [6] = tested on: Caucasian schizophrenia patients; assay: CATIE: hospitalization due to exacerbation of psychosis by SULT4A1-1 status; format: in vivo, human
# Excerpt: To assess if SULT4A1-1 status impacts the risk of hospitalization in Caucasians, the inventors assigned SULT4A1-1 status to each CATIE subject and evaluated hospitalization events due to exacerbation of psychosis. For this analysis, the inventors assigned a dichotomous value (positive or negative) for hospitalization status to subjects in each phase of the trial based on only the first hospitalization event for a given patient in that phase. Patients participating in Phases 1, 2, and/or 3 were included in the totals for the appropriate drug.
# A Kaplan-Meier survival analysis was performed to determine whether there was a difference between the survival (hospitalization) rates for the SULT4A1-1 negative and SULT4A1-1 positive patient populations treated with each of the atypical antipsychotics. Survival plots model the fraction of the population that survived (i.e., no hospitalization event) as a function of time.
compound,measurement,setting,value
Cc1cc2c(s1)Nc1ccccc1N=C2N1CCN(C)CC1 [Olanzapine],"Length of successful treatment (CGI Months), Mean",[1]; SULT4A1-1 negative,5.44 Months
same,"Length of successful treatment (CGI Months), Mean",[1]; SULT4A1-1 positive,8.33^d Months
same,"Length of successful treatment (CGI Months), Mean",[1]; Unsegmented,6.10 Months
same,Nonresponders,[2]; SULT4A1-1 Negative,14
same,Responders,[2]; SULT4A1-1 Negative,3
same,% Responders,[2]; SULT4A1-1 Positive,42.9%
same,Nonresponders,[2]; SULT4A1-1 Positive,4
same,Responders,[2]; SULT4A1-1 Positive,3
same,Incidence of clinically significant weight gain compared to other drugs,[3],higher incidence of clinically significant weight gain
same,"Time to discontinuation, mean",[4],10.0** Months
same,Responders,[5]; SULT4A1-1 negative,33.3%
same,Number of individuals with change in total PANSS ≦−20% (responders),[5]; SULT4A1-1 negative,15
same,Number of individuals with change in total PANSS ≧−20% (non-responders),[5]; SULT4A1-1 negative,30
same,Responders,[5]; SULT4A1-1 positive,25%
same,Number of individuals with change in total PANSS ≦−20% (responders),[5]; SULT4A1-1 positive,1
same,Number of individuals with change in total PANSS ≧−20% (non-responders),[5]; SULT4A1-1 positive,3
same,"HOSP, number of patients hospitalized",[6]; SULT4A1-1 negative,22
same,"HOSP, number of patients hospitalized",[6]; SULT4A1-1 positive,1
same,"HOSP, rate of hospitalization",[6]; SULT4A1-1 positive,2.6%
same,"HOSP, rate of hospitalization",[6]; Unsegmented,14.2%
same,"HOSP, number of patients hospitalized","[6]; Unsegmented, Phases 1, 2 and/or 3, first event",23
